Source: US20100041746A1, “NOVEL USE OF ORGANIC COMPOUNDS” (priority 2006, published 2010)

Tests used:
mACO1 = assay: Gene expression in C2C12 muscle cells (TaqMan RT-PCR): mACO1; assay type: cell-based, mouse; details: 24 h incubation, mRNA
Description: (§1) C2C12 subclone cells were obtained from Dr. Grimaldi, University of Nice, France. C2C12PPd cells were seeded in 24-well-plates with 0.1×106 to 0.15×106 and kept at 37° C. in maintenance medium (DMEM #41965 adjusted to 10% FBS, 2 mM L-Glutamine, 1 mM sodium pyruvate, 100 IU/ml penicillin and 100 μg/ml streptomycin). At 90-95% confluency, cells were washed with 1×PBS and changed to differentiation medium (DMEM #41965 adjusted to 3% FBS, 2 mM Glutamine and 1 mM sodium pyruvate). After 4 days of differentiation, cells were washed with 1×PBS and treated in treatment medium (DMEM #41965 adjusted to 2% BSA, 2 mM Glutamine and 100 IU/ml penicillin and 100 μg/ml streptomycin) with the test compounds. DMSO contents were adjusted to 0.5% final concentration.
(§2) After 24 h incubation with tested compounds, cells were washed with 1×PBS, harvested with 300 μl RLT buffer (Qiagen RNeasy Mini Kit #74106) in QIAshredder (Qiagen 79656) and stored at −20° C.
(§3) Total RNA was extracted using the Qiagen RNeasy Mini Kit, including an in column DNase step (Qiagen #79254) according to the manufacture's protocol. RNA concentration was determined using RiboGreen® RNA quantification assay (Molecular Probes #R11490, Eugene, USA) according to the manufacturer's protocol. 200 ng of the total RNA were subject to first strand cDNA synthesis by reverse transcription using the Omniscript™ RT-kit (Qiagen #205113, Basel, CH) with 10 μM Random Primers (Promega #C1181) according to the manufacturer's instructions. The final volume was adjusted to 400 μl with DEPC-treated water (Ambion, Austin, Tex., USA) and stored at −20° C.
(§4) Quantitative real-time TaqMan RT-PCR, based on the multiplex method, was used to quantify the expression levels of selected genes. In the quantitative TaqMan RT-PCR, 5 μl of the diluted cDNA was added to 20 μl of the reaction mixture, consisting of 12.5 μl TaqMan 2× Master Mix (PE biosystems, Rotkreuz, CH), 300 nM PCR primers (forward and reverse), and 100 nM TaqMan probe for the gene of interest. The reference gene used was 18S rRNA, with primers and probes at 50 nM and 100 nM, respectively. Probes for the gene of interest were labeled with FAM on the 5′ end and with Tamra on the 3′ end. The 18S rRNA probe was labeled with VIC on the 5′ end and with Tamra on the 3′ end. Amplification was performed using an Abi-Prism 7700 Sequence Detector (PE Biosystems, Foster City, Calif., USA) in MicroAmp Optical 96-well reaction plates (PE Biosystems, Foster City, Calif., USA). The PCR amplification program consisted of 2 min at 50° C., 10 min at 95° C., and 40 cycles of 15 sec at 95° C. and 60 sec at 60° C. Threshold CT values were set at 0.05. The baseline start and stop values for the gene of interest were set at 3 and 15, respectively, and for the reference gene (18S rRNA) at 3 and 7, respectively. mRNA abundance was determined using the ΔCT method according to the manufacturer's protocol. Briefly, the ΔCT for the gene of interest was determined as the difference between the CT values for the reference gene and the gene of interest. Then, ΔΔCT was determined as the difference in dCT between the untreated control group and each of the treated groups. The fold induction for the gene of interest (i.e. the amount of mRNA for the gene of interest, normalized to an endogenous reference and relative to a calibrator) was determined as 2-ΔΔCT In graphs data is presented as a percentage.
(§5) Genes in involved in fatty acid β-oxidation and lipid metabolism were checked using real-time RT-PCR.

mCPT1b = assay: Gene expression in C2C12 muscle cells (TaqMan RT-PCR): mCPT1b; assay type: cell-based, mouse; details: for mCPT1b fold of induction compared to DMSO control: C2C12 cells, 24 h incubation, mRNA; for Effect on CPT1b expression (in words): muscle cells
Description: as §1, §2, §3, §4, §5

mLPL = assay: Gene expression in C2C12 muscle cells (TaqMan RT-PCR): mLPL; assay type: cell-based, mouse; details: for mLPL fold of induction compared to DMSO control: C2C12 cells, 24 h incubation, mRNA; for Effect on LPL expression (in words): muscle cells
Description: as §1, §2, §3, §4, §5

mUCP2 = assay: Gene expression in C2C12 muscle cells (TaqMan RT-PCR): mUCP2; assay type: cell-based, mouse; details: 24 h incubation, mRNA
Description: as §1, §2, §3, §4, §5

mCD36 = assay: Gene expression in C2C12 muscle cells (TaqMan RT-PCR): mCD36; assay type: cell-based, mouse; details: for mCD36 fold of induction compared to DMSO control: C2C12 cells, 24 h incubation, mRNA; for Effect on CD36 expression (in words): muscle cells
Description: as §1, §2, §3, §4, §5

mFABP3 = assay: Gene expression in C2C12 muscle cells (TaqMan RT-PCR): mFABP3; assay type: cell-based, mouse; details: for mFABP3 fold of induction compared to DMSO control: C2C12 cells, 24 h incubation, mRNA; for Effect on FABP3 expression (in words): muscle cells
Description: as §1, §2, §3, §4, §5

mUCP3 = assay: Gene expression in C2C12 muscle cells (TaqMan RT-PCR): mUCP3; assay type: cell-based, mouse; details: for mUCP3 fold of induction compared to DMSO control: C2C12 cells, 24 h incubation, mRNA; for Effect on UCP3 expression (in words): muscle cells
Description: as §1, §2, §3, §4, §5

C57B1/6J mice = assay: Running performance, body composition and muscle weight of high-fat-diet mice supplemented for 9 weeks; assay type: in vivo, mouse
Description: 20 male C57B1/6J mice were obtained from Jackson Laboratory (Bar Harbor, Me., USA) at the age of 5 weeks. All mice were administered a high-fat diet (Kliba#2154, Provimi Kliba AG, Kaiseraugst, Switzerland) for 8 weeks to induce obesity. Thereafter, the mice were randomly assigned into two groups:
The duration of the supplementation was 9 weeks. During this period all mice received food and water ad libitum. At the end of the supplementation period, maximal running performance on a rodent treadmill (Technical & Scientific Equipment GmbH, Bad Homburg, Germany) was determined. Body composition was measured by quantitative magnetic resonance (Minispec MQ10, Bruker Optics GmbH, Faellanden, Switzerland) in conscious animals. At the end of the study, the animals were killed, blood was taken and the gastrocnemius-plantaris-soleus muscle group was excised and weighted.

[1] = compared to mice in the control group
[2] = mice, high-fat diet supplemented with 0.03% w/w, 9 weeks
[3] = mice, high-fat diet supplemented with 0.03% w/w, 9 weeks, quantitative magnetic resonance

COc1ccc(C=C2Oc3cc(O)ccc3C2=O)cc1 [Compound 7]
mACO1 fold of induction compared to DMSO control (mACO1): 1.03 fold
mCPT1b fold of induction compared to DMSO control (mCPT1b): 1.12 fold
mLPL fold of induction compared to DMSO control (mLPL): 1.06 fold
mUCP2 fold of induction compared to DMSO control (mUCP2): 2.33 fold
mCD36 fold of induction compared to DMSO control (mCD36): 2.95 fold
mFABP3 fold of induction compared to DMSO control (mFABP3): 2.16 fold

COc1ccc(C(=O)/C=C/c2c(CCN(C)C(C)=O)cc3c(c2OC)OCO3)cc1 [Compound 4]
mUCP3 fold of induction compared to DMSO control (mUCP3): 5.95 fold
Effect on UCP3 expression (in words) (mUCP3): increased UCP3 expression
mACO1 fold of induction compared to DMSO control (mACO1): 1.74 fold
mCPT1b fold of induction compared to DMSO control (mCPT1b): 5.08 fold
Effect on CPT1b expression (in words) (mCPT1b): induced
mLPL fold of induction compared to DMSO control (mLPL): 3.31 fold
Effect on LPL expression (in words) (mLPL): increased moderately
mUCP2 fold of induction compared to DMSO control (mUCP2): 7.55 fold
mCD36 fold of induction compared to DMSO control (mCD36): 15.56 fold
Effect on CD36 expression (in words) (mCD36): most remarkable effect
mFABP3 fold of induction compared to DMSO control (mFABP3): 6.29 fold
Effect on FABP3 expression (in words) (mFABP3): most remarkable effect

O=C(C=Cc1ccc(O)c(O)c1)NC(=O)c1ccccc1O [Compound 1, N-[3-(3,4-dihydroxyphenyl)-1-oxo-2-propenyl]-2-hydroxybenzamide]
mACO1 fold of induction compared to DMSO control (mACO1): 1.98 fold
mCPT1b fold of induction compared to DMSO control (mCPT1b): 1.33 fold
mLPL fold of induction compared to DMSO control (mLPL): 1.11 fold
mUCP2 fold of induction compared to DMSO control (mUCP2): 2.46 fold
mCD36 fold of induction compared to DMSO control (mCD36): 2.93 fold
mFABP3 fold of induction compared to DMSO control (mFABP3): 1.35 fold

COc1cc(C=CC(=O)NC(=O)c2ccccc2O)cc(OC)c1OC [Compound 2]
mACO1 fold of induction compared to DMSO control (mACO1): 1.81 fold
mCPT1b fold of induction compared to DMSO control (mCPT1b): 1.05 fold
mLPL fold of induction compared to DMSO control (mLPL): 1.91 fold
mUCP2 fold of induction compared to DMSO control (mUCP2): 3.27 fold
mCD36 fold of induction compared to DMSO control (mCD36): 3.2 fold
mFABP3 fold of induction compared to DMSO control (mFABP3): 1.63 fold

COc1ccc(C(=O)C=Cc2cccc(OC(=O)C=Cc3ccccc3)c2)cc1 [Compound 5, 3-phenyl-2-propenoic acid 3-[3-(4-methoxyphenyl)-3-oxo-1-propenyl]phenyl ester]
mACO1 fold of induction compared to DMSO control (mACO1): 1.03 fold
mCPT1b fold of induction compared to DMSO control (mCPT1b): 4.19 fold
Effect on CPT1b expression (in words) (mCPT1b): induced
mLPL fold of induction compared to DMSO control (mLPL): 1.84 fold
mUCP2 fold of induction compared to DMSO control (mUCP2): 2.33 fold
mCD36 fold of induction compared to DMSO control (mCD36): 1.91 fold
mFABP3 fold of induction compared to DMSO control (mFABP3): 1.88 fold

COc1ccc(C(=O)C=Cc2ccc(OC)cc2OC)cc1 [Compound 8, 3-(2,4-dimethoxyphenyl)-1-(4-methoxyphenyl)-2-propen-1-one]
mACO1 fold of induction compared to DMSO control (mACO1): 1.15 fold
mCPT1b fold of induction compared to DMSO control (mCPT1b): 1.29 fold
mLPL fold of induction compared to DMSO control (mLPL): 1.88 fold
mUCP2 fold of induction compared to DMSO control (mUCP2): 4.68 fold
mCD36 fold of induction compared to DMSO control (mCD36): 9.49 fold
mFABP3 fold of induction compared to DMSO control (mFABP3): 3.36 fold

COc1ccc(C(=O)C=Cc2ccc(OC)c(OC)c2)cc1 [Compound 6, 3-(3,4-dimethoxyphenyl)-1-(4-methoxyphenyl)-2-propen-1-one]
mUCP3 fold of induction compared to DMSO control (mUCP3): 1.92 fold
Effect on UCP3 expression (in words) (mUCP3): increased UCP3 expression
mACO1 fold of induction compared to DMSO control (mACO1): 1.09 fold
mCPT1b fold of induction compared to DMSO control (mCPT1b): 1.62 fold
mLPL fold of induction compared to DMSO control (mLPL): 2.44 fold
Effect on LPL expression (in words) (mLPL): increased moderately
mUCP2 fold of induction compared to DMSO control (mUCP2): 6.1 fold
mCD36 fold of induction compared to DMSO control (mCD36): 22.66 fold
Effect on CD36 expression (in words) (mCD36): most remarkable effect
mFABP3 fold of induction compared to DMSO control (mFABP3): 5.02 fold
Effect on FABP3 expression (in words) (mFABP3): most remarkable effect

COc1ccc(-c2coc3cc(OC)ccc3c2=O)cc1 [4′,7-Dimethoxyisoflavone, 4′,7-dimethoxyisoflavone]
Increase of maximal running distance (C57B1/6J mice; compared to control group, treadmill): 6%
Effect on body weight (in words) (C57B1/6J mice; [1]): decreased
Effect on gastrocnemius-plantaris-soleus weight relative to body weight (in words) (C57B1/6J mice; [1]): increased
Effect on percentage of body fat mass (in words) (C57B1/6J mice; [1]): decreased
Effect on percentage of lean body mass (in words) (C57B1/6J mice; [1]): increased
Body weight (C57B1/6J mice; [2]): 30.5 g
Gastrocnemius-plantaris-soleus weight (C57B1/6J mice; [2]): 6.74 mg/g body weight
Body fat mass (C57B1/6J mice; [3]): 15.6 % of body weight
Lean body mass (C57B1/6J mice; [3]): 75.0 % of body weight
Maximal running distance (C57B1/6J mice; mice, high-fat diet supplemented with 0.03% w/w, 9 weeks, rodent treadmill): 2201 m

COc1ccc(C=CC(=O)c2cc(OC)ccc2OC)c(OC)c1 [Compound 3, 3-(2,4-dimethoxyphenyl)-1-(2,5-dimethoxyphenyl)-2-propen-1-one]
mUCP3 fold of induction compared to DMSO control (mUCP3): 4.73 fold
Effect on UCP3 expression (in words) (mUCP3): increased UCP3 expression
mACO1 fold of induction compared to DMSO control (mACO1): 1.54 fold
mCPT1b fold of induction compared to DMSO control (mCPT1b): 3.64 fold
Effect on CPT1b expression (in words) (mCPT1b): induced
mLPL fold of induction compared to DMSO control (mLPL): 3.5 fold
Effect on LPL expression (in words) (mLPL): increased moderately
mUCP2 fold of induction compared to DMSO control (mUCP2): 4.25 fold
mCD36 fold of induction compared to DMSO control (mCD36): 10.16 fold
Effect on CD36 expression (in words) (mCD36): most remarkable effect
mFABP3 fold of induction compared to DMSO control (mFABP3): 4.76 fold
Effect on FABP3 expression (in words) (mFABP3): most remarkable effect
